Test [1] deals with T1, PDE4B2 (Homo sapiens, UniProt Q07343).
T1 construct: expressed in transfected cells; host or cells: Flp-In-293 (Flpin-293-PDE4B2 [sic])
Description: PDE4B2 enzyme experiment (AMP-glo, cAMP substrate). The format is biochemical. The note with it: for inhibition at 0.01 µM: read-out: PDE4B2 Enzyme Inhibition% @10 nM; for inhibition at 0.1 µM: read-out: PDE4B2 Enzyme Inhibition% @100 nM.
Description: All compounds were dissolved in DMSO into 10 mM or 20 mM stock solutions. The compound to be tested was diluted with DMSO in a 3-fold gradient. 20 nL/well of the compound or a DMSO control was transferred to a 384-well plate by using Echo 550 instrument. The plate was sealed with a membrane and centrifuged for 1 minute. A 2x enzyme solution was prepared with an assay buffer, and 2 uL/well of the 2x enzyme solution was added, followed by equilibration at room temperature for 10 minutes. A 2x Cyclic-3',5'-AMP substrate solution was prepared with an assay buffer, and 2 uL/well of the 2x substrate solution was added, followed by incubation at room temperature for 60 minutes. 4 uL of AMP-glo reagent was added, followed by incubation at room temperature for 60 minutes. 8 ul of an AMP detection solution was added, followed by incubation at room temperature for 60 minutes. An RLU value was read on Envision 2105 plate reader. The RLU value represents the concentration of the product AMP. Inhibition rate % ^= (1 - (RLUpositive control - RLUcompound)/(RLUpositive control - RLUnegative control)) * 100. The IC50 value was then caulculated by Graphpad 8.0 software using Y = Bottom + (Top - Bottom)/(1 + 10^((LogIC50 - X) * HillSlope)).

The target in test [2] is T1, PDE4B2. As to the kind of experiment: PDE4B2 cell experiment (cAMP, Eu-cAMP tracer / Ulight-anti-cAMP). The format is cell-based. The note with it: Flpin-293-PDE4B2 cells; for inhibition at 0.01 µM / Cell Inhibition% @10 nM: 10 nM; for inhibition at 0.1 µM / Cell Inhibition% @100 nM: 100 nM; for IC50: Foskolin; for Cell Inhibition% @1 nM / inhibition at 0.001 µM: 1 nM.

A word on the IC50: it is the concentration at which inhibition is half-maximal. Higher therefore signals a need for much substance. As a reminder, the inhibition is the relative decrease from the control value, in per cent.

The structures appear in SMILES notation.

T1 sequence (Q07343 1-564 isoform Q07343-2): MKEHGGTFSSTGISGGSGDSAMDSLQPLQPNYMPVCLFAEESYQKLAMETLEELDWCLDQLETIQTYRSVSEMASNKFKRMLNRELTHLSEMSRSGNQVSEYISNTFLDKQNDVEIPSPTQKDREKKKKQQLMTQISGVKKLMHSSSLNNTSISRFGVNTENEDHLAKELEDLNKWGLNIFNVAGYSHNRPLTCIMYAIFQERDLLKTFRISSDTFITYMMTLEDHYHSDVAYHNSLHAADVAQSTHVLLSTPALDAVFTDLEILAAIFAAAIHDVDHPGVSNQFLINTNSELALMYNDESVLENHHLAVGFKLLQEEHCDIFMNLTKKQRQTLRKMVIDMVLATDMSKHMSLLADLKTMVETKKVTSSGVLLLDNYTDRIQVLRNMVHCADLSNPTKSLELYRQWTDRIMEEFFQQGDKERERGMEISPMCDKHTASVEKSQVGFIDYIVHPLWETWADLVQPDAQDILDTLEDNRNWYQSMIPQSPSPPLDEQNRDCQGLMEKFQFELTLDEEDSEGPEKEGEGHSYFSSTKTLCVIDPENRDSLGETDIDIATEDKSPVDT

On to `[O-][S@@+]1CCc2nc(N3CCc4nn5cc(Cl)cnc5c4C3)nc(NC3(CO)CCC3)c21` [Compound 3], for which, on PDE4B2 [1], the IC50 came to 926 nM.

As for `[O-][S@+]1CCc2nc(N3Cc4nc5cc(Cl)ccn5c4C3)nc(NC3(CO)CCC3)c21` [Compound 8, (R)-2-(6-chloro-1,3-dihydro-2H-pyrrolo[3',4':4,5]imidazo[1,2-a]pyridin-2-yl)-4-((1-(hydroxymethyl)cyclobutyl)amino)-6,7-dihydrothieno[3,2-d]pyrimidine 5-oxide], on PDE4B2 [1], the inhibition at 0.01 µM came out at 45% and the inhibition at 0.1 µM came to 94.1%. Further, at PDE4B2 [2], the inhibition at 0.01 µM turned out to be 3.5% and the inhibition at 0.1 µM turned out to be 15.1%.

As for `[O-][S+]1CCc2nc(N3CCc4c(nn5cccc(Cl)c45)C3)nc(NC3(CO)CCC3)c21` (centres unmarked) [Compound 10], the IC50 at PDE4B2 [1] amounted to 2.31 nM; against PDE4B2 [2], 73.8 nM.

At PDE4B2 [1], `[O-][S@+]1CCc2nc(N3CC[C@@H]4c5ccc(Cl)cc5CC[C@@H]4C3)nc(NC3(CO)CCC3)c21` [Compound 12, (R)-2-((4aS,10bS)-8-chloro-1,4,4a,5,6,10-hexahydrobenzo[f]isoquinolin-3(2H)-yl)-4-((1-(hydroxymethyl)cyclobutyl)amino)-6,7-dihydrothieno[3,2-d]pyrimidine 5-oxide] yielded an IC50 of 15.4 nM. In addition, at PDE4B2 [2], the inhibition at 0.01 µM came to 16% and the inhibition at 0.1 µM amounted to 7.46%.

Consider `[O-][S@+]1CCc2nc(N3CC[C@H]4c5ccc(Cl)cc5OC[C@@H]4C3)nc(NC3(CO)CCC3)c21` [Compound 13, (R)-2-((4aS,10bR)-8-chloro-1,4a,5,10b-tetrahydro-2H-chromeno[3,4-c]pyridin-3(4H)-yl)-4-((1-(hydroxymethyl)cyclobutyl)amino)-6,7-dihydrothieno[3,2-d]pyrimidine 5-oxide], for which the values for the IC50 against PDE4B2 [1] and at PDE4B2 [2] were 6.39 nM and 562 nM, respectively.

As for `[O-][S+]1CCc2nc(N3CCc4scnc4C3)nc(NC3(CO)CCC3)c21` (centres unmarked) [Compound 17], on PDE4B2 [1], the IC50 came to 471 nM.

Take `[O-][S+]1CCc2nc(N3CCc4c(Cl)cccc4C3)nc(NC3(CO)CCC3)c21` (centres unmarked) [Compound 19]: the IC50 was found to be 7.17 nM against PDE4B2 [1] and 205 nM against PDE4B2 [2].

On PDE4B2 [1], `[O-][S+]1CCc2nc(N3CCc4ccc(Cl)cc4C3)nc(NC3(CO)CCC3)c21` (centres unmarked) [Compound 20] yielded an IC50 of 1.85 nM. Moreover, on PDE4B2 [2], the “Cell Inhibition% @10 nM” value was found to be 14.18% and the “Cell Inhibition% @100 nM” value is recorded as 69.92%.

The compound `[O-][S+]1CCc2nc(N3CCc4cccc(Cl)c4C3)nc(NC3(CO)CCC3)c21` (centres unmarked) [Compound 21] came in with an IC50 against PDE4B2 [1] of 2.11 nM. On PDE4B2 [2], the “Cell Inhibition% @10 nM” value is listed as 18.76% and the “Cell Inhibition% @100 nM” value was 79.24%.

For `[O-][S+]1CCc2nc(N3CCc4cc(F)ccc4C3)nc(NC3(CO)CCC3)c21` (centres unmarked) [Compound 23], the concentration for half-maximal inhibition (IC50) against PDE4B2 [1] is 2.84 nM; on PDE4B2 [2], 29.1 nM.

Turning to `Cn1cc2c(n1)CN(c1nc3c(c(NC4(CO)CCC4)n1)[S+]([O-])CC3)CC2` (centres unmarked) [Compound 30], at PDE4B2 [2], the “Cell Inhibition% @10 nM” value worked out at 11.30% and the “Cell Inhibition% @100 nM” value was 48.00%.

Consider `Cn1cc2c(n1)CCN(c1nc3c(c(NC4(CO)CCC4)n1)[S+]([O-])CC3)C2` (centres unmarked) [Compound 31], for which it took 7.42 nM to reach half-maximal inhibition on PDE4B2 [1] (IC50).

Take `[O-][S@+]1CCc2nc(N3CCc4c(Br)csc4C3)nc(NC3(CO)CCC3)c21` [Compound 54, (R)-2-(3-bromo-4,7-dihydrothieno[2,3-c]pyridin-6(5H)-yl)-4-((1-(hydroxymethyl)cyclobutyl)amino)-6,7-dihydrothieno[3,2-d]pyrimidine 5-oxide]: the inhibition at 0.001 µM at PDE4B2 [1] (read-out: PDE4B2 Enzyme Inhibition% @1 nM) amounted to 9.28%. Besides, on PDE4B2 [1], the inhibition at 0.01 µM amounted to 58.9% and the inhibition at 0.1 µM was 96.6%.

`[O-][S+]1CCc2nc(N3CCc4cc(-c5ncco5)ccc4C3)nc(NC3(CO)CCC3)c21` (centres unmarked) [Compound 84]: on PDE4B2 [2], the “Cell Inhibition% @1 nM” value is on record as 32.85%, the “Cell Inhibition% @10 nM” value is 96.96% and the “Cell Inhibition% @100 nM” value came to 100.72%.

In the case of `O=C1CCCN1c1ccc2c(c1)CCN(c1nc3c(c(NC4(CO)CCC4)n1)[S+]([O-])CC3)C2` (centres unmarked) [Compound 87], at PDE4B2 [2], the “Cell Inhibition% @1 nM” value amounted to 2.90%, the “Cell Inhibition% @10 nM” value turned out to be 31.33% and the “Cell Inhibition% @100 nM” value is recorded as 89.06%.

Regarding `[O-][S+]1CCc2nc(N3CCc4cc(N5CC(F)(F)C5)ccc4C3)nc(NC3(CO)CCC3)c21` (centres unmarked) [Compound 88], on PDE4B2 [2], the “Cell Inhibition% @1 nM” value is given as 3.67%, the “Cell Inhibition% @10 nM” value was 28.76% and the “Cell Inhibition% @100 nM” value amounted to 93.47%.

`[O-][S+]1CCc2nc(N3CCc4cc(F)c(F)cc4C3)nc(NC3(CO)CCC3)c21` (centres unmarked) [Compound 95]: at PDE4B2 [2], the “Cell Inhibition% @1 nM” value was -4.2%, the “Cell Inhibition% @10 nM” value is given as 6.8% and the “Cell Inhibition% @100 nM” value came to 66.7%.

For the compound `[O-][S+]1CCc2nc(N3CCc4cc(Cl)c(F)cc4C3)nc(NC3(CO)CCC3)c21` (centres unmarked) [Compound 96], on PDE4B2 [2], the “Cell Inhibition% @1 nM” value was -2.7%, the “Cell Inhibition% @10 nM” value stood at 15.7% and the “Cell Inhibition% @100 nM” value came to 84.8%.

For `[O-][S+]1CCc2nc(N3CCC4=C(COc5ccccc54)C3)nc(NC3(CO)CCC3)c21` (centres unmarked) [Compound 97], on PDE4B2 [2], the “Cell Inhibition% @1 nM” value is listed as 1.66%, the “Cell Inhibition% @10 nM” value came to 17.36% and the “Cell Inhibition% @100 nM” value is listed as 86.54%.

Regarding `Nc1nc2cc(Cl)ccc2c2c1CN(c1nc3c(c(NC4(CO)CCC4)n1)[S+]([O-])CC3)CC2` (centres unmarked) [Compound 102], at PDE4B2 [2], the “Cell Inhibition% @1 nM” value was -0.08%, the “Cell Inhibition% @10 nM” value is 35.86% and the “Cell Inhibition% @100 nM” value was found to be 95.46%.

In the case of `Cn1nc(Cl)c2c3c(cnc21)CN(c1nc2c(c(NC4(CO)CCC4)n1)[S+]([O-])CC2)CC3` (centres unmarked) [Compound 105], on PDE4B2 [2], the “Cell Inhibition% @1 nM” value was found to be 7.53%, the “Cell Inhibition% @10 nM” value is recorded as 42.53% and the “Cell Inhibition% @100 nM” value was 93.48%.

For `[O-][n+]1cc2c(c3ccc(Cl)cc31)CCN(c1nc3c(c(NC4(CO)CCC4)n1)[S+]([O-])CC3)C2` (centres unmarked) [Compound 106], on PDE4B2 [2], the “Cell Inhibition% @1 nM” value came to 0.41%, the “Cell Inhibition% @10 nM” value is listed as 21.18% and the “Cell Inhibition% @100 nM” value amounted to 67.52%.

For `[O-][S+]1CCc2nc(N3CC[C@@H]4c5ccc(F)cc5OC[C@H]4C3)nc(NC3(CO)CCC3)c21` (some centres unmarked) [Compound 109], on PDE4B2 [2], the “Cell Inhibition% @1 nM” value came out at 17.70%, the “Cell Inhibition% @10 nM” value worked out at 65.40% and the “Cell Inhibition% @100 nM” value was 97.85%.

As to `COc1ccc2c(c1)OC[C@H]1CN(c3nc4c(c(NC5(CO)CCC5)n3)[S+]([O-])CC4)CC[C@H]21` (some centres unmarked) [Compound 110], at PDE4B2 [2], the “Cell Inhibition% @1 nM” value amounted to 18.98%, the “Cell Inhibition% @10 nM” value is listed as 76.13% and the “Cell Inhibition% @100 nM” value amounted to 100.03%.

In the case of `[O-][S+]1CCc2nc(N3CC[C@@H]4c5ccc(C(F)(F)F)cc5OC[C@H]4C3)nc(NC3(CO)CCC3)c21` (some centres unmarked) [Compound 111], on PDE4B2 [2], the “Cell Inhibition% @1 nM” value came out at 8.07%, the “Cell Inhibition% @10 nM” value is 22.21% and the “Cell Inhibition% @100 nM” value is reported as 81.06%.

As for `Cc1ccc2c(c1)OC[C@H]1CN(c3nc4c(c(NC5(CO)CCC5)n3)[S+]([O-])CC4)CC[C@H]21` (some centres unmarked) [Compound 112], on PDE4B2 [2], the “Cell Inhibition% @1 nM” value came to 12.30%, the “Cell Inhibition% @10 nM” value turned out to be 54.08% and the “Cell Inhibition% @100 nM” value is recorded as 99.44%.

Take `[O-][S@+]1CCc2nc(N3CC[C@@H]4c5ccncc5OC[C@H]4C3)nc(NC3(CO)CCC3)c21` [Compound 113, (R)-4-((1-(hydroxymethyl)cyclobutyl)amino)-2-((6aR,10aS)-6a,9,10,10-tetrahydro-6H-pyrano[2,3-c:5,4-c']dipyridin-8(7H)-yl)-6,7-dihydrothieno[3,2-d]pyrimidine 5-oxide]: on PDE4B2 [2], the inhibition at 0.001 µM came out at 5.01%, the inhibition at 0.01 µM turned out to be 22.8% and the inhibition at 0.1 µM came to 71.9%.

Turning to `[O-][S@+]1CCc2nc(N3CC[C@H]4c5ncc(Cl)cc5OC[C@@H]4C3)nc(NC3(CO)CCC3)c21` [Compound 114, (R)-2-((6aS,10aR)-3-chloro-6a,9,10,10-tetrahydro-6H-pyrano[3,2-b:5,4-c']dipyridin-8(7H)-yl)-4-((1-(hydroxymethyl)cyclobutyl)amino)-6,7-dihydrothieno[3,2-d]pyrimidine 5-oxide], on PDE4B2 [2], the inhibition at 0.001 µM was -1.54%, the inhibition at 0.01 µM was 8.74% and the inhibition at 0.1 µM was determined as 54.5%.

Turning to `[O-][S+]1CCc2nc(N3CC[C@@H]4c5ccc(Br)cc5OC[C@H]4C3)nc(NC3(CO)CCC3)c21` (some centres unmarked) [Compound 115], at PDE4B2 [2], the “Cell Inhibition% @1 nM” value is listed as 7.72%, the “Cell Inhibition% @10 nM” value is 39.69% and the “Cell Inhibition% @100 nM” value is 97.73%.

Consider `[O-][S+]1CCc2nc(N3CC[C@H]4c5cnc(Cl)cc5OC[C@@H]4C3)nc(NC3(CO)CCC3)c21` (some centres unmarked) [Compound 117], for which, on PDE4B2 [2], the “Cell Inhibition% @1 nM” value is given as 5.32%, the “Cell Inhibition% @10 nM” value amounted to 17.32% and the “Cell Inhibition% @100 nM” value came out at 61.63%.

Turning to `[O-][S@+]1CCc2nc(N3CCc4c(ccc5[nH]ncc45)C3)nc(NC3(CO)CCC3)c21` [Compound 118, (R)-4-((1-(hydroxymethyl)cyclobutyl)amino)-2-(3,6,8,9-tetrahydro-7H-pyrazolo[4,3-f]isoquinolin-7-yl)-6,7-dihydrothieno[3,2-d]pyrimidine 5-oxide], at PDE4B2 [2], the inhibition at 0.001 µM is 11.1%, the inhibition at 0.01 µM turned out to be 41.7% and the inhibition at 0.1 µM was determined as 89%.

Regarding `[O-][S@+]1CCc2nc(N3CCc4cc(N5CCCC5)cnc4C3)nc(NC3(CO)CCC3)c21` [Compound 184, (R)-4-((1-(hydroxymethyl)cyclobutyl)amino)-2-(3-(pyrrolidin-1-yl)-5,8-dihydro-1,7-naphthyridin-7(6H)-yl)-6,7-dihydrothieno[3,2-d]pyrimidine 5-oxide], on PDE4B2 [2], the inhibition at 0.001 µM is 36.5%, the inhibition at 0.01 µM worked out at 94.3% and the inhibition at 0.1 µM turned out to be 100%.
